Key:
Histone deacetylase 1 = Histone deacetylase 1 (Homo sapiens, UniProt Q13547); experiment: Inhibition of human recombinant HDAC1 using ArgHisLysLys(Ac) as substrate by fluorescence based analysis
Histone deacetylase 4 = Histone deacetylase 4 (Homo sapiens, UniProt P56524); experiment: Inhibition of human recombinant HDAC4 using ArgHisLysLys(Ac) as substrate by fluorescence based analysis
Histone deacetylase 7 = target: T1, Histone deacetylase 7 (Homo sapiens, UniProt Q8WUI4); experiment: Inhibition of human recombinant HDAC7 using ArgHisLysLys(Ac) as substrate by fluorescence based analysis
T1 sequence (Q8WUI4 whole entry): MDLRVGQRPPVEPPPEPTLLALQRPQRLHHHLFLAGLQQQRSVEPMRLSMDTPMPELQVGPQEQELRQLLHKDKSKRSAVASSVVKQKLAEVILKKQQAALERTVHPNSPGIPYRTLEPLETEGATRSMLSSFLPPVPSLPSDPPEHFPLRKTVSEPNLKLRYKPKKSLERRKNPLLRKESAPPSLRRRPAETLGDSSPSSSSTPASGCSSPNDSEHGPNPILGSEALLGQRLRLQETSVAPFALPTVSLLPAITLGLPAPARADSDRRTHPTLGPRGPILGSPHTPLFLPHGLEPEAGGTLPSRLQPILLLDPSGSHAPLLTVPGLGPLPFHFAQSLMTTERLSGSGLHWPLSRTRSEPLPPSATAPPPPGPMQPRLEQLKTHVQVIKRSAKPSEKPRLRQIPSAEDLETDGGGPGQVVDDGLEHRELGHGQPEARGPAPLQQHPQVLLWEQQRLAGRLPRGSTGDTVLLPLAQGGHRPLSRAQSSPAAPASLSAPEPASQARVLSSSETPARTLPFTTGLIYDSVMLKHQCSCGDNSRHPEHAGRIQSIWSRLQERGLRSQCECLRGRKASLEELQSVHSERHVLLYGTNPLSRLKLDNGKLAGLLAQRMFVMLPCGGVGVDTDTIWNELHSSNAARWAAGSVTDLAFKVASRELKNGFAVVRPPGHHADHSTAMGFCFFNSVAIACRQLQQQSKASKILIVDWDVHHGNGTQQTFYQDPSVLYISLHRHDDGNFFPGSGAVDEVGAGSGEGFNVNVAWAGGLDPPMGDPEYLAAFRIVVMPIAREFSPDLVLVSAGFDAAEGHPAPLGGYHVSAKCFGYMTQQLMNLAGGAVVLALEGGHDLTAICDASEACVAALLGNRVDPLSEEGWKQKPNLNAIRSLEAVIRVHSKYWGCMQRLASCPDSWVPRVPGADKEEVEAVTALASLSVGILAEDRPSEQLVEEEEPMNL

Histone deacetylase 8 = target: T2, Histone deacetylase 8 (Homo sapiens, UniProt Q9BY41); experiment: Inhibition of human recombinant HDAC8 using ArgHisLysLys(Ac) as substrate by fluorescence based analysis
T2 sequence (Q9BY41 whole entry): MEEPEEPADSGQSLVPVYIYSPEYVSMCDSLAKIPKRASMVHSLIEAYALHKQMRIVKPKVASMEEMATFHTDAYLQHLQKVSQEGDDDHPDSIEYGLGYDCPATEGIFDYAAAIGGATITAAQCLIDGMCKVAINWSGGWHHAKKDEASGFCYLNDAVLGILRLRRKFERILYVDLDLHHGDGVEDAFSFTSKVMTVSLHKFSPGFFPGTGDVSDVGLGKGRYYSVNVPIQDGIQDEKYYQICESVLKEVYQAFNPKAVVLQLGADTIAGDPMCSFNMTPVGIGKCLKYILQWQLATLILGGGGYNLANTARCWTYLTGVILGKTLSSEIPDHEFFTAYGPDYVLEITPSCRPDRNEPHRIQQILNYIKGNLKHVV

Measured: IC50

Histone deacetylase 1, sequence (Q13547 whole entry): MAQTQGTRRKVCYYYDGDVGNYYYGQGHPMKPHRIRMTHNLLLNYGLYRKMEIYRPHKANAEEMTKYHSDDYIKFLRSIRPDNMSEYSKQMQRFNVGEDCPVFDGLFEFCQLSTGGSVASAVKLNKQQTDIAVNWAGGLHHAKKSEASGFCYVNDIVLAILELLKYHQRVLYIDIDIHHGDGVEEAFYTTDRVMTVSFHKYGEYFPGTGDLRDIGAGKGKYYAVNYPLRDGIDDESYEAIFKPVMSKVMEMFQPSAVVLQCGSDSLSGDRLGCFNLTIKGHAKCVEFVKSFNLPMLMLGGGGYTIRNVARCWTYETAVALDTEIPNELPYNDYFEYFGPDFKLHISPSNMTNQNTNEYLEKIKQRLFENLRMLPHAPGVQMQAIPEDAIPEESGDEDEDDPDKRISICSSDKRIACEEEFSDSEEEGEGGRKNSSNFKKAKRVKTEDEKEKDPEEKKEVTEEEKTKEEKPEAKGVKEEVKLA
Histone deacetylase 4, sequence (P56524 whole entry): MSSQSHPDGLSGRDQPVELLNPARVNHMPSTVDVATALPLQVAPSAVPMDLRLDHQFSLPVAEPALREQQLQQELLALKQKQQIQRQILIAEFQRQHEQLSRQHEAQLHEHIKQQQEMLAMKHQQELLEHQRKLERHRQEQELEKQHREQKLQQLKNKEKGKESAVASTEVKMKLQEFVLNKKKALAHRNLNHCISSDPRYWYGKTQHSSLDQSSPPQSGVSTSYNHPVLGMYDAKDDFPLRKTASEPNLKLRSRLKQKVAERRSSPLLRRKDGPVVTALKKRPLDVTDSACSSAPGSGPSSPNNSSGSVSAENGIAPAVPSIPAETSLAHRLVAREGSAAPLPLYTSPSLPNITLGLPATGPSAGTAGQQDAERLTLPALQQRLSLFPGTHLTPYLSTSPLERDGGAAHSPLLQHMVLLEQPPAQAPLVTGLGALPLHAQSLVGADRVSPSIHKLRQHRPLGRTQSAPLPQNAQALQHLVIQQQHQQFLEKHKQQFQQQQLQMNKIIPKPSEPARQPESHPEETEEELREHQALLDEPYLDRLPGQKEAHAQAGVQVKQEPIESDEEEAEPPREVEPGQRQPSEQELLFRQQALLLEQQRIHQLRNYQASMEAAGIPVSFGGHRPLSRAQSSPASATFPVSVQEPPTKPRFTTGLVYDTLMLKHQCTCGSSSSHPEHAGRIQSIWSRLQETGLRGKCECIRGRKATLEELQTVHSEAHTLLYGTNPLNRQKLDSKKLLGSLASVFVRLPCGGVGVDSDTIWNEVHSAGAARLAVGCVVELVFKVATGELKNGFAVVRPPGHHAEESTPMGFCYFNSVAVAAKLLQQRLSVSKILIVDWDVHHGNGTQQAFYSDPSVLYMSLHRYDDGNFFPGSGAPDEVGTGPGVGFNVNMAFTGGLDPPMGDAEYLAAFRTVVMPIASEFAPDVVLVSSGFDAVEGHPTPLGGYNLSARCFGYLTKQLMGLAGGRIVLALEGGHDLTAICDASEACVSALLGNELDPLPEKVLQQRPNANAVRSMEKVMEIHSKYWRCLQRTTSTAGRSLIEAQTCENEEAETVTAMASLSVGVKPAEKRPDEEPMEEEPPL

O=C(CCCCC[C@@H]1CN(O)C1=O)Nc1ccccc1
> 1000 µM: Histone deacetylase 1 | Histone deacetylase 4 | Histone deacetylase 7 | Histone deacetylase 8

Nc1ccccc1N1CC(CCCCCC(=O)Nc2ccccc2)C1=O (stereo unspecified)
> 1000 µM: Histone deacetylase 1 | Histone deacetylase 4 | Histone deacetylase 7 | Histone deacetylase 8

O=C(CCCCC[C@H]1CN(O)C1=O)Nc1ccccc1
> 1000 µM: Histone deacetylase 1 | Histone deacetylase 4 | Histone deacetylase 7 | Histone deacetylase 8

O=C(CCCCCC1CNC1=O)Nc1ccccc1 (stereo unspecified)
> 1000 µM: Histone deacetylase 1 | Histone deacetylase 4 | Histone deacetylase 7 | Histone deacetylase 8
